Experimental data from patent US7229762B2, “Proteomic screening for redox state dependent protein—protein interactions” (Duke University Medical Center, priority 2003, dated 2007).

Assays:
[1] = molecular target: T1, caspase-3/ASM interaction (Homo sapiens, UniProt P42574); experiment: In vitro ASM/caspase-3 co-precipitation, ASM activity in caspase-3 IPs; assay type: binding; settings: 20 μM DETA-NO 60 min, then ASM 37° C. 2 hrs
T1 sequence (P42574 29-277): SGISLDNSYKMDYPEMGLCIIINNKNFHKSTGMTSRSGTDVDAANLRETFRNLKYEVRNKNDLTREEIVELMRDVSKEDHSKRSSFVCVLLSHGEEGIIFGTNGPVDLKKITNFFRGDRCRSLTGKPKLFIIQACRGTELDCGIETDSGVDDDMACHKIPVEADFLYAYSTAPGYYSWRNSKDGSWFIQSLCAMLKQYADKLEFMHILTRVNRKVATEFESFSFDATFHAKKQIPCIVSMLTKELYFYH
T1 sequence (P17405 47-631 partner): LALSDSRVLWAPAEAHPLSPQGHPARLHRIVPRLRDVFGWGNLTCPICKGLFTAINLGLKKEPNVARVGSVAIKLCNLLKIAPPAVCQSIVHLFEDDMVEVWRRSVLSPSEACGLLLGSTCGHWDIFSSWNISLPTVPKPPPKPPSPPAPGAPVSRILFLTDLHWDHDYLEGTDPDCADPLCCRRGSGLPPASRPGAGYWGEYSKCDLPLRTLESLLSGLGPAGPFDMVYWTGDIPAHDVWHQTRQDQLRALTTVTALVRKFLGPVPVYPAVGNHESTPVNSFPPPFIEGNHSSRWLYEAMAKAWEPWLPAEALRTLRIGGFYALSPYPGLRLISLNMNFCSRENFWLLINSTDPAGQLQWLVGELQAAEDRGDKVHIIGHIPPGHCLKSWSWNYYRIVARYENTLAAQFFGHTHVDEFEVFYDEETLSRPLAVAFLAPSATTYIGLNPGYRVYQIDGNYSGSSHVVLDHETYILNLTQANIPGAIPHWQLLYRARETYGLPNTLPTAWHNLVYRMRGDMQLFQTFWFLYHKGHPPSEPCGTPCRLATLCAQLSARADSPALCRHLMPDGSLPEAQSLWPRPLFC
Protocol: ASM activity was measured essentially as described (E. Romiti et al., 2000), using BODIPY FL C5-sphingomyelin substrate (1.5 nmol) in assay buffer: 250 mM sodium acetate, pH 5.0, 10 mM EDTA. To assay Zn-stimulated ASM activity, 0.1 mM ZnCl was used instead of 10 mM EDTA. 30 μl sample was incubated with 70 μl assay buffer at 37° C. for 1–3 hours. Reactions were terminated by adding 1.0 ml heptane and 0.29 ml isopropyl alcohol. Phases were separated by adding 0.23 ml H2O. The heptane phase was washed with 0.23 ml H2O. The fluorescence of the organic phase (containing BODIPY FL-ceramide) was assayed at 505/514 nm excitation/emission wavelengths (slit width=2.5). […]
Purified caspase-3 was incubated in the presence or absence 20 μM DETA-NO for 60 min (30 nM steady state NO), followed by incubation with ASM at 37° C. for 2 hrs, and IP with caspase-3 antibody. […] The interaction of caspase-3 with ASM was measured as ASM activity in caspase-3 IP's (pH 5.0). […]
To determine the relevant target(s) of NO, ASM/caspase-3 co-precipitations were carried out following NO treatment of each partner alone. Using an ASM activity assay, the amounts of ASM that could be precipitated with a procaspase-3 antibody was assessed from co-incubates (2 hours at 37° C.) of ASM (20 pmol) and caspase-3 in limiting amounts (2.5 pmol). […]

[2] = molecular target: T2, caspase-3 interaction with iNOS / ASM (Homo sapiens, UniProt P42574); experiment: Modified yeast two-hybrid, NO-dependent growth of iNOS/caspase-3 and ASM/caspase-3 clones; assay type: cell-based; settings: iNOS/caspase-3 clone, presence vs absence of NO
T2 construct: expressed in transfected cells; host or cells: Saccharomyces cerevisiae CG-1945 Δyhb1
T2 sequence (P42574 1-277): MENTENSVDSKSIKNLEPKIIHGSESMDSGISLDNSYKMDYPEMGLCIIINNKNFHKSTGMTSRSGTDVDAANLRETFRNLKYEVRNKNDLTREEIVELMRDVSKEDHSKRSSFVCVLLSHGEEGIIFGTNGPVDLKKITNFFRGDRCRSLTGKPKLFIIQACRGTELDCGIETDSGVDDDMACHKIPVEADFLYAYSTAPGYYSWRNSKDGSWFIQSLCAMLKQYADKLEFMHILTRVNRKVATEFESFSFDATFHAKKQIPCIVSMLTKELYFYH
Protocol: Yeast (Δyhb1) were transformed with Gal4 BD-caspase-3 plasmid (bait) and a cDNA library (Gal4 AD prey plasmids) derived from activated (NO generating) macrophages. Screening was performed as described in the methods below. DETA-NO at less than 300 μM generates NO without inhibiting yeast growth (monitored by absorbance at 600 nm). Steady state NO concentrations are maintained at ˜100 nM–1 μM range for several days as measured with an NO electrode (not shown).
Auxotrophic selection was carried out on agar plates (15 cm in diameter) enriched in 50 mM phosphate buffer (pH 7.2; His-Trp-Leu (triple)-deficient buffered medium (TDBM)). […] Prey plasmids were isolated from positive yeast clones and then re-introduced into the bait strain to confirm bait-prey interactions. Method 2: After cells were seeded on 1.5% agar they were covered with 3% low melting point agar, which in turn was layered with culture medium. NO donors (e.g. DETA-NO; 300 μM final concentration) were added to the liquid layer every 24 hours. Colonies are grown for 4 days as described in ref 9. Method 3:
Auxotrophic selection was carried out in TDBM. Transformation with the cDNA library was followed by overnight growth in medium deficient in tryptophan and leucine. Transformants were then grown for 3 days in His-deficient medium supplemented with DETA-NO (typically 200 μM final concentration). […]

AIF/MIP-1α interaction = molecular target: T3, AIF/MIP-1α interaction (UniProt O95831+P10855); experiment: Modified yeast two-hybrid, NO-dependent growth of AIF/MIP-1α clone; assay type: cell-based; settings: 200 μM DETA-NO, 72 hrs
T3 construct: The entire open reading frame of AIF was derived from I.M.A.G.E. clones 1520292 and 25192; expressed in transfected cells; host or cells: Saccharomyces cerevisiae Δyhb1
T3 sequence (O95831 102-613): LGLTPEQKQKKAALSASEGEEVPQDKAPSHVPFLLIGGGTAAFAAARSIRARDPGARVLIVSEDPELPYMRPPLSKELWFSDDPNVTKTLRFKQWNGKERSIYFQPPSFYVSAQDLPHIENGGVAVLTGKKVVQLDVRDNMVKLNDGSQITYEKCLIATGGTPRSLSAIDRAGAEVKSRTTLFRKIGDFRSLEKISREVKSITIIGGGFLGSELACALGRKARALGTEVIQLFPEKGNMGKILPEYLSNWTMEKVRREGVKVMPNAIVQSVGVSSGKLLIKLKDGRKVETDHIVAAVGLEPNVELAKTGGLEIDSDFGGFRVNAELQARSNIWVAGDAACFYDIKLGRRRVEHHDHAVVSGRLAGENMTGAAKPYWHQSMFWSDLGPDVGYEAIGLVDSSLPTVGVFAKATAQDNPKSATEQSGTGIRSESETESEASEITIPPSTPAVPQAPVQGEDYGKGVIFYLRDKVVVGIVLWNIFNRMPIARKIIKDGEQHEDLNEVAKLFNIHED
T3 sequence (P10855 24-92): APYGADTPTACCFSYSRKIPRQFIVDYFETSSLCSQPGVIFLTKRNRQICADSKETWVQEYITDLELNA
Protocol: Yeast (Δyhb1) were transformed with Gal4 BD-AIF (Bait) and Gal4 AD-MIP-1α (Prey). (A) Robust growth of the AIF/MIP-1α clone requires NO (single asterisk, P<0.001 versus AIF/MIP-1α without NO) (n=6). […] Cells were grown in His-Trp-Leu-deficient medium at 30° C. for 72 hrs with or without 200 μM DETA-NO. (B) β-galactosidase activities in samples shown in A (single asterisk, P<0.001 vs. without NO, n=4).
To extend the generality of our findings, 2.5 million transformants were screened from our macrophage cDNA library for NO-dependent interactions, using apoptosis-inducing factor (AIF) as bait. AIF is implicated in cell death that is independent of caspase-3, and is not known to be regulated by NO (Lipton et al., 2002). […] One of these clones contained the entire cDNA sequence of the chemokine, macrophage inflammatory protein-1 alpha (MIP-1α). Since this clone contained a few extra amino acids derived from a linker sequence, the full length MIP-1α coding sequence was amplified by PCR and cloned into the pGAD 10 vector, whose NO-dependent interaction with AIF was verified.

ASM = molecular target: T4, ASM (Homo sapiens, UniProt P17405); experiment: ASM activity assay of purified ASM (BODIPY FL C5-sphingomyelin); assay type: biochemical; settings: DETA-NO 50 μM–200 μM, 30 or 60 min, pH 5.0
T4 sequence (P17405 47-631): T1 sequence (P17405 47-631 partner)
Protocol: ASM activity was measured essentially as described (E. Romiti et al., 2000), using BODIPY FL C5-sphingomyelin substrate (1.5 nmol) in assay buffer: 250 mM sodium acetate, pH 5.0, 10 mM EDTA. To assay Zn-stimulated ASM activity, 0.1 mM ZnCl was used instead of 10 mM EDTA. 30 μl sample was incubated with 70 μl assay buffer at 37° C. for 1–3 hours. Reactions were terminated by adding 1.0 ml heptane and 0.29 ml isopropyl alcohol. Phases were separated by adding 0.23 ml H2O. The heptane phase was washed with 0.23 ml H2O. The fluorescence of the organic phase (containing BODIPY FL-ceramide) was assayed at 505/514 nm excitation/emission wavelengths (slit width=2.5).
Purified ASM protein (3.4 μg) was treated with DETA-NO (50 μM–200 μM for 30 or 60 min) and ASM activity was measured at pH 5.0 (n=3).

[N]=O [NO, nitric oxide]
binding of ASM to caspase-3 pretreated with NO [1]: induces binding of ASM | NO-dependent growth of iNOS transformant [2]: ~9 fold | increase in growth in the presence of NO (AIF/MIP-1α interaction): 8 fold | effect on ASM activity (ASM): no direct effect on ASM activity
